These results are taken from patent publication US5491072A, “N-alkylacridan carboxyl derivatives useful for chemiluminescent detection” (Lumigen, Inc., priority 1993, dated 1996).

For experiment [1], the target named is T1, horseradish peroxidase (Armoracia rusticana, UniProt P00433).
T1 sequence (P00433 31-338 limits assumed): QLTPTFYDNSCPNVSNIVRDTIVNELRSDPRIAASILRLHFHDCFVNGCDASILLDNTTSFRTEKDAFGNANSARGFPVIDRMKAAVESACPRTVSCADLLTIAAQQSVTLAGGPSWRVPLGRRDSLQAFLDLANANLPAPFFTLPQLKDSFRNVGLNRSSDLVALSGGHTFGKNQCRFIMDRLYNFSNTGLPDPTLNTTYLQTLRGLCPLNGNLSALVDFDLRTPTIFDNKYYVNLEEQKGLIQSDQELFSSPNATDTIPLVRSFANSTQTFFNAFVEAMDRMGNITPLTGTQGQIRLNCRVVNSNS
As to the kind of experiment: Sensitivity of detection of horseradish peroxidase using 1b and hydrogen peroxide. In kind it is biochemical. Conditions: 1b 46 μmol/L, 0.2 mmol/L hydrogen peroxide, 37° C.; for linear assay range for HRP: pH 8.0 tris. On the procedure: (§1) The experiments in the following examples were performed using a Turner Designs TD-20e luminometer fitted with neutral density filter for light attenuation. Data collection, analysis and display were software controlled. Constant temperature was maintained by means of an external circulating water bath connected to the luminometer.
A matrix optimization experiment was done using 1b (0.1 mM-0.05 mM), hydrogen peroxide (4.4 mM-44 μM), HRP (9×10^-19 mol-1.4×10^-12 mol) at 37° C. The final assay reagent consists of 2.25×10^-3 M p-iodophenol, 0.5% Tween 20 and 1×10^-3 M EDTA in pH 8.0, 0.1M tris buffer. The best compromise between sensitivity and dynamic range was obtained using 1b (46 μmol/L) and 0.2 mmol/L hydrogen peroxide. These conditions gave a linear assay for HRP in the range of 9×10^-19 to 1.4×10^-14 mol (detection limit S/B=1.4 after 5 min with 9×10^-19 mol) or in the range of 9×10^-19 to 1.4×10^-15 mol (detection limit S/B=2 after 15 min with 9×10^-19 mol).
FIGS. 2A to 2C show the correlation of corrected signal to background vs. amount of HRP using solutions containing 0.05 mM 1b, 0.5% Tween 20, 1×10^-3 M EDTA in pH 8.0, 0.1M tris buffer.

The target in experiment [2] is T1, horseradish peroxidase. As to the kind of experiment: Effect of pH and buffer salt on chemiluminescence of 1b. In kind it is biochemical. Conditions: 0.1 mM 1b, 0.8 mM H2O2, 2.25 mM p-iodophenol, 1.4×10^-15 mol HRP, 30 min, room temperature. On the procedure: as §1
The present invention may be practiced over the pH range of at least 7-9 and functions with different buffering salts. Tubes containing 200 μL of a formulation containing 0.1 mM 1b in the specified buffer, 0.8 mM H2 O2, 2.25 mM p-iodophenol, 0.5% (w/w) Tween 20 and 1 mM EDTA were placed in the luminometer at room temperature. Horseradish peroxidase (1.4×10^-15 mol) was injected and the chemiluminescence intensity determined at 30 min. The time course of the light emission was similar in all four solutions. The optimum pH can vary with changes in the concentrations of the reactants.

For experiment [3], the target named is T2, HRP (Armoracia rusticana, UniProt P00433).
T2 sequence (P00433 31-338 limits assumed): T1 sequence (P00433 31-338 limits assumed)
As to the kind of experiment: Comparison of detection of HRP with luminol reagent and 1b reagent. Format: biochemical, horseradish. Conditions: corrected signal-to-background at 5 min, 37° C., comparing log (S-B)/B=0. On the procedure:
as §1
Forty μL of a solution containing 1b (0.05 mM), p-iodophenol (2.25 mM), H2 O2 (0.2 mM), Tween 20 (0.5%), EDTA (1 mM) in 0.1M tris, pH 8.0 and forty μL of the commercial reagent (Amersham, Arlington Heights, Ill.) were incubated at 37° C. and reacted with varying amounts of HRP. FIG. 6 compares the corrected signal-to-background ratios at 5 min. […] Measuring light intensity at 15 min provides an additional reduction in detection limit with the reagent containing 1b, while the luminol reagent results are unchanged.

Experiment [4] has as its system human transferrin. As to the kind of experiment: Chemiluminescent detection of proteins by Western blot. An excerpt: To determine the sensitivity of reagents of the present invention for detection of proteins by Western blotting, a model system of transferrin was used to provide polypeptide bands in known quantities.
Rabbit anti-goat IgG-peroxidase conjugate and rabbit anti-goat IgG-peroxidase were obtained from Cappel Products (Durham, N.C.). Human transferrin and fractionated goat anti-human transferrin serum were purchased from Sigma Chemical Co. (St. Louis, Mo.)). The IgG sample was centrifuged at 10,000 g for two minutes and the supernatant was used in the immunological reaction. Immobilon™-P transfer membrane was obtained from Millipore Corp. (Bedford, Mass.). Kodak (Rochester, N.Y.) X-OMAT AR and OMC films were used in the assay procedure.
SDS-PAGE was performed utilizing the buffer system described by Laemmli (U. K. Laemmli, Nature (London), 227, 680 (1970)). The stacking gel was 4.38% acrylamide: 0.12% bisacrylamide. The separating gel was 6.81% acrylamide: 0.19% bisacrylamide. Following electrophoresis the gel was equilibrated for 7-8 minutes with the transfer buffer which contained 20 mM Tris, 153 mMglycine and 20% (v/v) methanol. The gel, sandwiched between a sheet of transfer membrane and a sheet of chromatography paper 3MM (Whatman), was placed in the transfer unit (Bio-Rad Laboratories, Richmond, Calif.). […]

SMILES strings stand for the structures.

`CN1c2ccccc2C(C(=O)Oc2ccc(O)cc2)c2ccccc21` [Compound 1b, 4'-Hydroxyphenyl 10-methylacridan-9-carboxylate]: the “linear assay range for HRP” value in experiment [1] (after 5 min) was in the range of 9e-19 to 1.4e-14 mol; in experiment [1] (after 15 min), 9e-19 to 1.4e-15 mol. Besides, the figures for the “detection limit S/B” value in experiment [1] (after 5 min with 9×10^-19 mol HRP) and in experiment [1] (after 15 min with 9×10^-19 mol HRP) were 1.4 and 2, respectively. Moreover, the S/B in experiment [2] (0.1 M phosphate buffer, pH 8.9) was found to be 306; in experiment [2] (0.1 M tris buffer, pH 8.0) it was 1400; in experiment [2] (0.1 M tris buffer, pH 8.5), 600; in experiment [2] (0.1 M tris buffer, pH 8.9) it was 160. Also, the “sensitivity of detection of HRP compared to the luminol reagent” value in experiment [3] is “greater sensitivity of detection”. For the same compound, the “duration of detectable chemiluminescence on membrane (X-ray film)” value in experiment [4] (HRP-conjugate on membrane, Western blot) is reported as “at least three hours”. Further, the “transferrin standards clearly visible down to” value in experiment [4] (detection reagent with 5 × 10^-5 M 1b and NaBO3, 7 sec exposure X-OMAT AR film or 30 second exposure OMC film) was 20 pg/slot.
